Results reported in the supplement of paper PMC10307832.

How the values were obtained:
Experiment in all cases: relative viability (nuclei count vs DMSO), 5 days (fraction); higher = more cells survive
NCI-H1395 = test system: NCI-H1395
How it was run: (§1)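 One day after seeding in 1536-well plates, lung cancer cell lines were dosed by pin tool. Dosing was either single-drug or a fixed anchor-drug dose plus five library-drug doses (not always all listed) in √10 steps. After 5 days, nuclei were stained in one fix-and-stain step and counted on 4× images, and relative viability is the nuclei count of treated wells over that of vehicle wells, given as the median of duplicate plates.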

NCI-H1651 = test system: NCI-H1651
How it was run: as §1

NCI-H3122 = test system: NCI-H3122
How it was run: as §1

NCI-H2228 = test system: NCI-H2228
How it was run: as §1

NCI-H2087 = test system: NCI-H2087
How it was run: as §1

PC-3 [JPC-3] = test system: PC-3 [JPC-3]
How it was run: as §1

LU99A = test system: LU99A
How it was run: as §1

HCC-366 = test system: HCC-366
How it was run: as §1

CAL-12T = test system: CAL-12T
How it was run: as §1

RERF-LC-KJ = test system: RERF-LC-KJ
How it was run: as §1

NCI-H460 = test system: NCI-H460
How it was run: as §1

NCI-H1755 = test system: NCI-H1755
How it was run: as §1

NCI-H1944 = test system: NCI-H1944
How it was run: as §1

ChaGo-K-1 = test system: ChaGo-K-1
How it was run: as §1

NCI-H2170 = test system: NCI-H2170
How it was run: as §1

NCI-H2405 = test system: NCI-H2405
How it was run: as §1

LC-2-ad = test system: LC-2-ad
How it was run: as §1

NCI-H1793 = test system: NCI-H1793
How it was run: as §1

HCC-78 = test system: HCC-78
How it was run: as §1

UMC-11 = test system: UMC-11
How it was run: as §1

LOU-NH91 = test system: LOU-NH91
How it was run: as §1

Work on `O=c1cc(-c2cccc3c2Sc2ccccc2S3)oc(N2CCOCC2)c1` + CC1(C)CCC(c2ccc(Cl)cc2)=C(CN2CCN(c3ccc(C(=O)NS(=O)(=O)c4ccc(N[C@H](CCN5CCOCC5)CSc5ccccc5)c(S(=O)(=O)C(F)(F)F)c4)cc3)CC2)C1 [Navitoclax] (partner 0.5 µM) yielded a relative viability (NCI-H1395; first compound 0.08 µM) of 1.14, a relative viability (NCI-H1395; first compound 0.253 µM) of 1.1 and a relative viability (NCI-H1395; first compound 0.8 µM) of 1.12. For the same molecule, the relative viability (NCI-H1395; first compound 2.53 µM) was 1.13, the relative viability (NCI-H1395; first compound 8 µM) was 1.03 and the relative viability (NCI-H1651; first compound 0.08 µM) was 1.04. For the same molecule, the relative viability (NCI-H1651; first compound 0.253 µM) was 1.42, the relative viability (NCI-H1651; first compound 0.8 µM) was 0.852 and the relative viability (NCI-H1651; first compound 2.53 µM) was 0.994. For the same molecule, the relative viability (NCI-H1651; first compound 8 µM) was 1.14, the relative viability (NCI-H3122; first compound 0.08 µM) was 1.04 and the relative viability (NCI-H3122; first compound 0.253 µM) was 1.01. It also gave a relative viability (NCI-H3122; first compound 0.8 µM) of 1.03, a relative viability (NCI-H3122; first compound 2.53 µM) of 1.02 and a relative viability (NCI-H3122; first compound 8 µM) of 1.03. It also gave a relative viability (NCI-H2228; first compound 0.08 µM) of 1.17, a relative viability (NCI-H2228; first compound 0.253 µM) of 0.902 and a relative viability (NCI-H2228; first compound 0.8 µM) of 0.818. For the same molecule, the relative viability (NCI-H2228; first compound 2.53 µM) was 0.87, the relative viability (NCI-H2228; first compound 8 µM) was 0.852 and the relative viability (NCI-H2087; first compound 0.08 µM) was 0.995. It also gave a relative viability (NCI-H2087; first compound 0.253 µM) of 1.3, a relative viability (NCI-H2087; first compound 0.8 µM) of 1.07 and a relative viability (NCI-H2087; first compound 2.53 µM) of 0.955. For the same molecule, the relative viability (NCI-H2087; first compound 8 µM) was 1.21, the relative viability (PC-3 [JPC-3]; first compound 0.08 µM) was 0.836 and the relative viability (PC-3 [JPC-3]; first compound 0.253 µM) was 0.779. For the same molecule, the relative viability (PC-3 [JPC-3]; first compound 0.8 µM) was 0.897, the relative viability (PC-3 [JPC-3]; first compound 2.53 µM) was 0.767 and the relative viability (PC-3 [JPC-3]; first compound 8 µM) was 0.992. The relative viability (LU99A; first compound 0.08 µM) was 0.809, the relative viability (LU99A; first compound 0.253 µM) was 0.918 and the relative viability (LU99A; first compound 0.8 µM) was 0.84. It also gave a relative viability (LU99A; first compound 2.53 µM) of 0.786, a relative viability (LU99A; first compound 8 µM) of 0.958 and a relative viability (HCC-366; first compound 0.08 µM) of 0.987. For the same molecule, the relative viability (HCC-366; first compound 0.253 µM) was 1.19, the relative viability (HCC-366; first compound 0.8 µM) was 1.07 and the relative viability (HCC-366; first compound 2.53 µM) was 0.98. It also gave a relative viability (HCC-366; first compound 8 µM) of 0.996, a relative viability (CAL-12T; first compound 0.08 µM) of 1.16 and a relative viability (CAL-12T; first compound 0.253 µM) of 1.26. The relative viability (CAL-12T; first compound 0.8 µM) was 1.48, the relative viability (CAL-12T; first compound 2.53 µM) was 1.2 and the relative viability (CAL-12T; first compound 8 µM) was 1.31. For the same molecule, the relative viability (RERF-LC-KJ; first compound 0.08 µM) was 0.768, the relative viability (RERF-LC-KJ; first compound 0.253 µM) was 0.711 and the relative viability (RERF-LC-KJ; first compound 0.8 µM) was 0.934. For the same molecule, the relative viability (RERF-LC-KJ; first compound 2.53 µM) was 0.798, the relative viability (RERF-LC-KJ; first compound 8 µM) was 0.856 and the relative viability (NCI-H460; first compound 0.08 µM) was 1.24. For the same molecule, the relative viability (NCI-H460; first compound 0.8 µM) was 1.42, the relative viability (NCI-H460; first compound 2.53 µM) was 1.23 and the relative viability (NCI-H1755; first compound 0.08 µM) was 1.05. It also gave a relative viability (NCI-H1755; first compound 0.253 µM) of 1.13, a relative viability (NCI-H1755; first compound 0.8 µM) of 0.992 and a relative viability (NCI-H1755; first compound 2.53 µM) of 0.988. It also gave a relative viability (NCI-H1755; first compound 8 µM) of 0.939, a relative viability (NCI-H1944; first compound 0.08 µM) of 1 and a relative viability (NCI-H1944; first compound 0.253 µM) of 1.11. It also gave a relative viability (NCI-H1944; first compound 0.8 µM) of 1.06, a relative viability (NCI-H1944; first compound 8 µM) of 1.16 and a relative viability (ChaGo-K-1; first compound 0.08 µM) of 0.903. The relative viability (ChaGo-K-1; first compound 0.253 µM) was 1.04, the relative viability (ChaGo-K-1; first compound 0.8 µM) was 1.12 and the relative viability (ChaGo-K-1; first compound 8 µM) was 1.25. For the same molecule, the relative viability (NCI-H2170; first compound 0.08 µM) was 0.693, the relative viability (NCI-H2170; first compound 0.253 µM) was 0.749 and the relative viability (NCI-H2170; first compound 0.8 µM) was 0.642. It also gave a relative viability (NCI-H2170; first compound 2.53 µM) of 0.55, a relative viability (NCI-H2170; first compound 8 µM) of 0.519 and a relative viability (NCI-H2405; first compound 0.08 µM) of 0.887. The relative viability (NCI-H2405; first compound 0.253 µM) was 0.761, the relative viability (NCI-H2405; first compound 0.8 µM) was 0.794 and the relative viability (NCI-H2405; first compound 2.53 µM) was 0.825. The relative viability (NCI-H2405; first compound 8 µM) was 0.78, the relative viability (LC-2-ad; first compound 0.08 µM) was 0.363 and the relative viability (LC-2-ad; first compound 0.253 µM) was 0.666. It also gave a relative viability (LC-2-ad; first compound 0.8 µM) of 0.375, a relative viability (LC-2-ad; first compound 2.53 µM) of 0.421 and a relative viability (LC-2-ad; first compound 8 µM) of 0.403. For the same molecule, the relative viability (NCI-H1793; first compound 0.08 µM) was 0.307, the relative viability (NCI-H1793; first compound 0.253 µM) was 0.515 and the relative viability (NCI-H1793; first compound 0.8 µM) was 0.344. For the same molecule, the relative viability (NCI-H1793; first compound 2.53 µM) was 0.362, the relative viability (NCI-H1793; first compound 8 µM) was 0.356 and the relative viability (HCC-78; first compound 0.08 µM) was 0.806. The relative viability (HCC-78; first compound 0.253 µM) was 0.978, the relative viability (HCC-78; first compound 0.8 µM) was 0.767 and the relative viability (HCC-78; first compound 2.53 µM) was 0.779. The relative viability (HCC-78; first compound 8 µM) was 0.816, the relative viability (UMC-11; first compound 0.08 µM) was 0.326 and the relative viability (UMC-11; first compound 0.253 µM) was 0.319. It also gave a relative viability (UMC-11; first compound 0.8 µM) of 0.32, a relative viability (UMC-11; first compound 2.53 µM) of 0.304 and a relative viability (UMC-11; first compound 8 µM) of 0.353. It also gave a relative viability (LOU-NH91; first compound 0.08 µM) of 0.711, a relative viability (LOU-NH91; first compound 0.253 µM) of 0.68 and a relative viability (LOU-NH91; first compound 0.8 µM) of 0.573. It also gave a relative viability (LOU-NH91; first compound 2.53 µM) of 0.59 and a relative viability (LOU-NH91; first compound 8 µM) of 0.705.
